One series has as its target human KOR receptor (Homo sapiens, UniProt P41145). The series is described as follows: IP-One HTRF assay, potency of KOR agonists, dose-response in transiently transfected COS-7 cells. In kind it is cell-based.

These results are taken from patent US9487510B2, “Substituted heterocyclic acetamides as kappa opioid receptor (KOR) agonists” (Dr. Reddy's Laboratories Ltd., priority 2012, dated 2016).

SMILES strings stand for the structures.

human KOR receptor, sequence (P41145 whole entry): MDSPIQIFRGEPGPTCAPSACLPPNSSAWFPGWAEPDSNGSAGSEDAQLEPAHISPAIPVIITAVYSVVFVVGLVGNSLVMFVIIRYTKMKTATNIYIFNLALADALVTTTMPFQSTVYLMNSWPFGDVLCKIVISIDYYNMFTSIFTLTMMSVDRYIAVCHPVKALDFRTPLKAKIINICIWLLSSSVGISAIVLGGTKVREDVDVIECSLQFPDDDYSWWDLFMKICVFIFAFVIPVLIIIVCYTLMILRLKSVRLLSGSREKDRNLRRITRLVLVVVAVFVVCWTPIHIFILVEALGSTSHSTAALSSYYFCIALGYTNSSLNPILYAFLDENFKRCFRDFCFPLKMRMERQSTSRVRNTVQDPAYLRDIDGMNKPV

One may read the melting point as the temperature of the solid-liquid transition. Broadly, the EC50 is the concentration needed to bring the measured effect to its halfway point. The low end stands for an effect from little substance, the high end for a need for much substance. `N#Cc1cccc(Cn2c(=O)oc3ccc(CC(=O)N[C@H](CN4CCCC4)c4ccccc4)cc32)c1` [Example 46, (S)-2-(3-(3-cyanobenzyl)-2-oxo-2,3-dihydrobenzo[d]oxazol-5-yl)-N-(1-phenyl-2-(pyrrolidin-1-yl)ethyl)acetamide] showed a melting point of 109 to 110 °C. Also, the EC50 on human KOR receptor was no more than 50 nM.
With `CN(C(=O)Cc1ccc2ccc(=O)[nH]c2c1)[C@H](CN1CCCC1)c1ccccc1` [Example 49, (S)-N-methyl-2-(2-oxo-1,2-dihydroquinolin-7-yl)-N-(1-phenyl-2-(pyrrolidin-1-yl)ethyl)acetamide], the melting point was 170 to 172 °C. This molecule also had an EC50 on human KOR receptor of no less than 1000 nM.
For the molecule `O=C(Cc1ccc2oc(=O)[nH]c2c1)N[C@H](CN1CCCC1)c1ccccc1` [Example 56, (S)-2-(2-oxo-2,3-dihydrobenzo[d]oxazol-5-yl)-N-(1-phenyl-2-(pyrrolidin-1-yl)ethyl) acetamide], the melting point fell in the range of 129 to 130 °C. Further, the EC50 on human KOR receptor was no more than 50 nM.
On the same counts, the results for `O=C(Cc1ccc2oc(=O)[nH]c2c1)N[C@H](CN1CC[C@H](O)C1)c1ccccc1` [Example 57, N-((S)-2-((S)-3-hydroxypyrrolidin-1-yl)-1-phenylethyl)-2-(2-oxo-2,3-dihydrobenzo[d]oxazol-5-yl)acetamide] are 210 to 211 °C and no more than 50 nM.
`COc1ccc(COc2cccc([C@@H](CN3CCCC3)NC(=O)Cc3ccc4oc(=O)n(Cc5ccccc5)c4c3)c2)cc1` [Example 58, (S)-2-(3-benzyl-2-oxo-2,3-dihydrobenzo[d]oxazol-5-yl)-N-(1-(3-(4-methoxybenzyloxy)phenyl)-2-(pyrrolidin-1-yl)ethyl)acetamide] displayed a melting point of 72 to 74 °C. On human KOR receptor, this molecule had an EC50 of no more than 50 nM.
For `N#Cc1ccc(Cn2c(=O)oc3ccc(CC(=O)N[C@H](CN4CC[C@H](O)C4)c4ccccc4)cc32)cc1` [Example 59, 2-(3-(4-cyanobenzyl)-2-oxo-2,3-dihydrobenzo[d]oxazol-5-yl)-N-((S)-2-((S)-3-hydroxypyrrolidin-1-yl)-1-phenylethyl)acetamide], the melting point amounted to 194 °C. The EC50 at human KOR receptor was no more than 50 nM.
Take `Cn1c(=O)oc2ccc(CC(=O)N[C@H](CN3CCCC3)c3ccccc3)cc21` [Example 61, (S)-2-(3-methyl-2-oxo-2,3-dihydrobenzo[d]oxazol-5-yl)-N-(1-phenyl-2-(pyrrolidin-1-yl)ethyl)acetamide]: the melting point was in the range of 105 to 107 °C. Moreover, on human KOR receptor, the EC50 was in the range of 51 to 100 nM.
Take `CC(C)(C)OC(=O)COc1cccc([C@@H](CN2CCCC2)NC(=O)Cc2ccc3oc(=O)n(Cc4ccccc4)c3c2)c1` [Example 63, (S)-t-butyl-2-(3-(1-(2-(3-benzyl-2-oxo-2,3-dihydrobenzo[d]oxazol-5-yl)acetamido)-2-(pyrrolidin-1-yl)ethyl)phenoxy)acetate]: the melting point lay in the range of 68 to 70 °C. The molecule also registered an EC50 at human KOR receptor of no more than 50 nM.
In turn, `O=C(Cc1ccc2oc(=O)[nH]c2c1)N[C@H](CN1CC[C@H](O)C1)C1CCCCC1` [Example 67, N-((S)-1-cyclohexyl-2-((S)-3-hydroxypyrrolidin-1-yl)ethyl)-2-(2-oxo-2,3-dihydrobenzo[d]oxazol-5-yl)acetamide] gave a melting point of 173 to 174 °C. Further, on human KOR receptor, the EC50 is no more than 50 nM.
On to `CN(C(=O)Cc1ccc2oc(=O)n(Cc3ccccc3)c2c1)[C@H](CN1CCCC1)c1cccc(OCC(=O)OC(C)(C)C)c1` [Example 68, (S)-tert-butyl-2-(3-(1-(2-(3-benzyl-2-oxo-2,3-dihydrobenzo[d]oxazol-5-yl)-N-methylacetamido)-2-(pyrrolidin-1-yl)ethyl)phenoxy)acetate], for which the melting point lay in the range of 111 to 113 °C. Further, the EC50 at human KOR receptor is no more than 50 nM.
`O=C1Cc2ccc(CC(=O)N[C@H](CN3CC[C@H](O)C3)C3CCCCC3)cc2N1` [Example 69, N-((S)-1-cyclohexyl-2-((S)-3-hydroxypyrrolidin-1-yl)ethyl)-2-(2-oxoindolin-6-yl)acetamide] came in with a melting point of 132 to 133 °C. On human KOR receptor, the EC50 was no more than 50 nM.
In turn, `CN(C(=O)Cc1ccc2oc(=O)[nH]c2c1)[C@H](CN1CC[C@H](O)C1)C1CCCCC1` [Example 70, N-((S)-1-cyclohexyl-2-((S)-3-hydroxypyrrolidin-1-yl)ethyl)-N-methyl-2-(2-oxo-2,3dihydrobenzo[d]oxazol-5-yl)acetamide] displayed a melting point of 130 to 131 °C. At human KOR receptor, the EC50 was no more than 50 nM.
In turn, `N#Cc1cccc(Cn2c(=O)oc3ccc(CC(=O)N[C@H](CN4CC[C@H](O)C4)c4ccccc4)cc32)c1` [Example 72, 2-(3-(3-cyanobenzyl)-2-oxo-2,3-dihydrobenzo[d]oxazol-5-yl)-N-((S)-2-((S)-3-hydroxypyrrolidin-1-yl)-1-phenylethyl)acetamide] had a melting point of 65 to 68 °C. The EC50 at human KOR receptor was no more than 50 nM.
The molecule `O=C(Cc1ccc2oc(=O)[nH]c2c1)N[C@H](CN1CCCC1)c1cccc(O)c1` [Example 84, (S)-N-(1-(3-hydroxyphenyl)-2-(pyrrolidin-1-yl)ethyl)-2-(2-oxo-2,3-dihydrobenzo[d]oxazol-5-yl)acetamide] showed a melting point of 140 to 142 °C. At human KOR receptor, this molecule yielded an EC50 of no more than 50 nM.
In the same order, the values of `CN(C(=O)Cc1ccc2c(c1)NC(=O)C2)C(CN1CCCC1)c1cccc(OCC(=O)O)c1.Cl` (stereo not shown) [Example 87, 2-(3-(1-(N-methyl-2-(2-oxoindolin-6-yl)acetamido)-2-(pyrrolidin-1-yl)ethyl)phenoxy)acetic acid hydrochloride] are 169 to 171 °C and no more than 50 nM.
As to `CN(C(=O)Cc1ccc2oc(=O)n(Cc3cccc(C(N)=O)c3)c2c1)[C@H](CN1CC[C@H](O)C1)c1ccccc1` [Example 88, 3-((5-(2-(((S)-2-((S)-3-hydroxypyrrolidin-1-yl)-1-phenylethyl)(methyl)amino)-2-oxoethyl)-2-oxobenzo[d]oxazol-3(2H)-yl)methyl)benzamide], the melting point fell in the range of 181 to 183 °C. This molecule also showed an EC50 on human KOR receptor of no more than 50 nM.
With `CN(C(=O)Cc1ccc2oc(=O)n(Cc3ccccc3)c2c1)[C@H](CN1CCCC1)c1cccc(O)c1` [Example 89, (S)-2-(3-benzyl-2-oxo-2,3-dihydrobenzo[d]oxazol-5-yl)-N-(1-(3-hydroxyphenyl)-2-(pyrrolidin-1-yl)ethyl)-N-methylacetamide], the melting point was in the range of 165 to 167 °C. The same molecule returned an EC50 at human KOR receptor of 101 to 1000 nM.
In the same order, the values of `NC(=O)c1cccc(Cn2c(=O)oc3ccc(CC(=O)N[C@H](CN4CCCC4)c4ccccc4)cc32)c1` [Example 91, (S)-3-((2-oxo-5-(2-oxo-2-(1-phenyl-2-(pyrrolidin-1-yl)ethylamino)ethyl)benzo[d]oxazol-3(2H)-yl)methyl)benzamide] are 171 to 172 °C and no more than 50 nM.
In the case of `Cl.O=C(O)COc1cccc(C(CN2CCCC2)NC(=O)Cc2ccc3c(c2)NC(=O)C3)c1` (stereo not shown) [Example 92, 2-(3-(1-(2-(2-oxoindolin-6-yl)acetamido)-2-(pyrrolidin-1-yl)ethyl)phenoxy)acetic acid], the melting point was 104 to 106 °C. On human KOR receptor, this molecule displayed an EC50 of no more than 50 nM.
In the same order, the values of `CN(C(=O)Cc1ccc2oc(=O)[nH]c2c1)[C@H](CN1CCCC1)c1cccc(-c2nn[nH]n2)c1` [Example 93, (S)-N-(1-(3-(2H-tetrazol-5-yl)phenyl)-2-(pyrrolidin-1-yl)ethyl)-N-methyl-2-(2-oxo-2,3-dihydrobenzo[d]oxazol-5-yl)acetamide] are 240 to 242 °C and no more than 50 nM.
In the case of `CN(C(=O)Cc1ccc2oc(=O)n(CC(=O)O)c2c1)[C@H](CN1CC[C@@H](O)C1)C1CCCCC1` [Example 97], the melting point lay within 233 to 234 °C. Besides, on human KOR receptor, the EC50 is no more than 50 nM.
Consider `O=C(Cc1ccc2oc(=O)n(Cc3ccc(-c4nnn[nH]4)cc3)c2c1)N[C@H](CN1CC[C@H](O)C1)c1ccccc1` [Example 106, 2-(3-(4-(1H-tetrazol-5-yl)benzyl)-2-oxo-2,3-dihydrobenzo[d]oxazol-5-yl)-N-((S)-2-((S)-3-hydroxypyrrolidin-1-yl)-1-phenylethyl)acetamide], for which the melting point is 296 to 297 °C. In addition, the EC50 on human KOR receptor was no more than 50 nM.
Consider `CN(C(=O)Cc1ccc2oc(=O)[nH]c2c1)[C@H](CN1CC[C@H](F)C1)c1cccc(-c2nn[nH]n2)c1` [Example 109, N-((S)-1-(3-(2H-tetrazol-5-yl)phenyl)-2-((S)-3-fluoropyrrolidin-1-yl)ethyl)-N-methyl-2-(2-oxo-2,3-dihydrobenzo[d]oxazol-5-yl)acetamide], for which the melting point lay within 133 to 134 °C. This molecule also showed an EC50 at human KOR receptor of no more than 50 nM.
Turning to `CN(C(=O)Cc1ccc2c(c1)NC(=O)C2)[C@H](CN1CC[C@H](O)C1)c1cccc(-c2nn[nH]n2)c1` [Example 110, N-((S)-1-(3-(2H-tetrazol-5-yl)phenyl)-2-((S)-3-hydroxypyrrolidin-1-yl)ethyl)-N-methyl-2-(2-oxoindolin-6-yl)acetamide], the melting point lay within 208 to 210 °C. Moreover, on human KOR receptor, the EC50 is no more than 50 nM.
`CN(C(=O)Cc1ccc2c(c1)NC(=O)C2)[C@H](CN1CC[C@H](F)C1)c1cccc(-c2nn[nH]n2)c1` [Example 113, N-((S)-1-(3-(2H-tetrazol-5-yl)phenyl)-2-((S)-3-fluoropyrrolidin-1-yl)ethyl)-N-methyl-2-(2-oxoindolin-6-yl)acetamide]: the melting point was 175 to 177 °C. Besides, at human KOR receptor, the EC50 was no more than 50 nM.
Consider `CN(C(=O)Cc1ccc2c(c1)NS(=O)(=O)C2)[C@H](CN1CC[C@H](O)C1)c1ccccc1` [Example 136, 2-(2,2-dioxido-1,3-dihydrobenzo[c]isothiazol-6-yl)-N-((S)-2-((S)-3-hydroxypyrrolidin-1-yl)-1-phenylethyl)-N-methylacetamide], for which the melting point lay in the range of 232 to 234 °C. On human KOR receptor, this molecule had an EC50 of no more than 50 nM.
